Source: ChEMBL document CHEMBL6109146, “Discovery of New Pyrazolone Carbothioamide Derivatives as Potent Antifungal Agents for the Treatment of Candidiasis and Cryptococcosis” (J Med Chem, 2025)
The source made the active and inactive calls. The rule behind the calls is not given here.

Key:
Candida albicans [1] = assay: Antifungal activity against Candida albicans SC5314 assessed as inhibition of fungal growth incubated for 48 to 72 hrs by microplate reader analysis; type: functional, organism-based; conditions: time 48-72 hrs
Candida albicans [2] = assay: Antifungal activity against Candida albicans 103 assessed as inhibition of fungal growth incubated for 48 to 72 hrs by microplate reader analysis; type: functional, organism-based; conditions: time 48-72 hrs
Candida albicans [3] = assay: Antifungal activity against Candida albicans 9296 assessed as inhibition of fungal growth incubated for 48 to 72 hrs by microplate reader analysis; type: functional, organism-based; conditions: time 48-72 hrs
[Candida] auris [4] = Antifungal activity against Candida auris 15448 assessed as inhibition of fungal growth incubated for 48 to 72 hrs by microplate reader analysis; type: functional, organism-based; conditions: Candidozyma auris, time 48-72 hrs
[Candida] auris [5] = Antifungal activity against Candida auris 0029 assessed as inhibition of fungal growth incubated for 48 to 72 hrs by microplate reader analysis; type: functional, organism-based; conditions: Candidozyma auris, time 48-72 hrs
[Candida] auris [6] = Antifungal activity against Candida auris 0030 assessed as inhibition of fungal growth incubated for 48 to 72 hrs by microplate reader analysis; type: functional, organism-based; conditions: Candidozyma auris, time 48-72 hrs
Cryptococcus neoformans [7] = assay: Antifungal activity against Cryptococcus neoformans H99 assessed as inhibition of fungal growth incubated for 48 to 72 hrs by microplate reader analysis; type: functional; conditions: time 48-72 hrs
Cryptococcus neoformans [8] = assay: Antifungal activity against Cryptococcus neoformans 011409 assessed as inhibition of fungal growth incubated for 48 to 72 hrs by microplate reader analysis; type: functional; conditions: time 48-72 hrs
Cryptococcus neoformans [9] = assay: Antifungal activity against Cryptococcus neoformans HN-68 assessed as inhibition of fungal growth incubated for 48 to 72 hrs by microplate reader analysis; type: functional; conditions: time 48-72 hrs
Cryptococcus gattii = assay: Antifungal activity against Cryptococcus gattii 01063P assessed as inhibition of fungal growth incubated for 48 to 72 hrs by microplate reader analysis; type: functional; conditions: time 48-72 hrs
Nakaseomyces glabratus [10] = assay: Antifungal activity against Candida glabrata 8535 assessed as inhibition of fungal growth incubated for 48 to 72 hrs by microplate reader analysis; type: functional; conditions: time 48-72 hrs
Nakaseomyces glabratus [11] = assay: Antifungal activity against Candida glabrata 9256 assessed as inhibition of fungal growth incubated for 48 to 72 hrs by microplate reader analysis; type: functional; conditions: time 48-72 hrs
Nakaseomyces glabratus [12] = assay: Antifungal activity against Candida glabrata 0161 assessed as inhibition of fungal growth incubated for 48 to 72 hrs by microplate reader analysis; type: functional; conditions: time 48-72 hrs
Nakaseomyces glabratus [13] = assay: Fungicidal activity against Candida glabrata 0161 at 32 microg/ml incubated for 48 hrs by time-kill kinetics analysis; type: functional, organism-based; conditions: dose 32.0 µg/ml
Cryptococcus neoformans [14] = assay: Inhibition of biofilm formation in Cryptococcus neoformans H99 at 32 microg/ml incubated for 24 hrs by XTT reagent based assay relative to control; type: functional
Nakaseomyces glabratus [15] = assay: Inhibition of matured biofilm in Candida glabrata 0161 at 2 to 32 microg/ml incubated for 24 hrs by XTT reagent based assay; type: functional, organism-based; conditions: dose 2-32 µg/ml
Cryptococcus neoformans [16] = assay: Inhibition of matured biofilm in Cryptococcus neoformans H99 at 2 to 32 microg/ml incubated for 24 hrs by XTT reagent based assay; type: functional, organism-based; conditions: dose 2-32 µg/ml
Cryptococcus neoformans [17] = assay: Inhibition of capsule formation in Cryptococcus neoformans H99 at 32 microg/ml incubated for 24 hrs by light microscopic analysis; type: functional, organism-based; conditions: dose 32.0 µg/ml
Cryptococcus neoformans [18] = assay: Inhibition of urease production in Cryptococcus neoformans H99 at 0.031 to 1 microg/ml by photographic analysis relative to control; type: functional; conditions: dose 0.031-1 µg/ml
Cryptococcus neoformans [19] = assay: Inhibition of melanin production in Cryptococcus neoformans H99 at 0.031 to 1 microg/ml by photographic analysis relative to control; type: functional, organism-based; conditions: dose 0.031-1 µg/ml
Cryptococcus neoformans [20] = assay: Induction of morphological changes in Cryptococcus neoformans H99 assessed as cell wall damage at 4 microg/ml incubated for 8 hrs by transmission electron microscopic analysis; type: functional, organism-based; conditions: dose 4.0 µg/ml
Cryptococcus neoformans [21] = assay: Induction of morphological changes in Cryptococcus neoformans H99 assessed as nuclei damage at 4 microg/ml incubated for 8 hrs by transmission electron microscopic analysis; type: functional, organism-based; conditions: dose 4.0 µg/ml
Cryptococcus neoformans [22] = assay: Induction of morphological changes in Cryptococcus neoformans H99 assessed as organelle damage at 4 microg/ml incubated for 8 hrs by transmission electron microscopic analysis; type: functional, organism-based; conditions: dose 4.0 µg/ml
Cryptococcus neoformans [23] = assay: Induction of ROS accumulation in Cryptococcus neoformans H99 assessed as increase in intracellular ROS level by measuring intense green fluorescence at 4 microg/ml incubated for 24 hrs by DCFH-DA probe based fluorescence microscopic analysis; type: functional, organism-based; conditions: dose 4.0 µg/ml
Cryptococcus neoformans [24] = assay: Induction of oxidative damage in Cryptococcus neoformans H99 assessed as increase in MDA level at 4 microg/ml incubated for 24 hrs relative to control; type: functional; conditions: dose 4.0 µg/ml
Cryptococcus neoformans [25] = assay: Effect on intracellular free iron ions level in Cryptococcus neoformans H99 at 4 microg/ml incubated for 24 hrs by absorbance based analysis; type: functional, cell-based; conditions: dose 4.0 µg/ml
Cryptococcus neoformans [26] = assay: Antifungal activity against Cryptococcus neoformans H99 assessed as inhibition of fungal growth in presence of 10% serum containing transferrin-bound ferric iron and free iron; type: functional
Cryptococcus neoformans [27] = assay: Antifungal activity against Cryptococcus neoformans H99 assessed as inhibition of fungal growth in presence of Fe(II) ions; type: functional
Cryptococcus neoformans [28] = assay: Antifungal activity against Cryptococcus neoformans H99 assessed as inhibition of fungal growth in presence of Fe(III) ions; type: functional
Cryptococcus neoformans [29] = assay: (§1) Antifungal activity against Cryptococcus neoformans H99 infected in cryptococcosis female ICR mouse model assessed as reduction in pyknosis in neuronal nuclei by measuring reduction in staining at 20 mg/kg, ip pre-infected with fungi for 3 hrs followed by compound administration and measured after 5 days by H and E staining based analysis; type: functional, organism-based; conditions: time 5.0 day
Cryptococcus neoformans [30] = assay: as §1, with “cysts formation” for “pyknosis”, “brain cortex” for “neuronal nuclei by measuring reduction in staining”; type: functional, organism-based; conditions: time 5.0 day

## S=C(Nc1ccc(C2CCCCC2)cc1)Nc1cc[nH]n1
Candida albicans [1]
  Activity: inactive
Candida albicans [2]
  Activity: inactive
Candida albicans [3]
  Activity: inactive
[Candida] auris [4]
  Activity: inactive
[Candida] auris [5]
  Activity: inactive
[Candida] auris [6]
  Activity: inactive
Cryptococcus neoformans [7]
  Activity: inactive
Cryptococcus neoformans [8]
  Activity: inactive
Cryptococcus neoformans [9]
  Activity: inactive
Cryptococcus gattii
  Activity: inactive
Nakaseomyces glabratus [10]
  Activity: inactive
Nakaseomyces glabratus [11]
  Activity: inactive
Nakaseomyces glabratus [12]
  Activity: inactive

## CCCCc1ccc(NC(=S)n2[nH]c(N)cc2=O)cc1
Candida albicans [1]
  Activity: Active
Candida albicans [2]
  Activity: Active
Candida albicans [3]
  Activity: Active
[Candida] auris [4]
  Activity: Active
[Candida] auris [5]
  Activity: Active
[Candida] auris [6]
  Activity: Active
Cryptococcus neoformans [7]
  Activity: Active
Cryptococcus neoformans [8]
  Activity: Active
Cryptococcus neoformans [9]
  Activity: Active
Cryptococcus gattii
  Activity: Active
Nakaseomyces glabratus [10]
  Activity: Active
Nakaseomyces glabratus [11]
  Activity: Active
Nakaseomyces glabratus [12]
  Activity: Active

## Nc1cc(=O)n(C(=S)Nc2ccc3ncccc3c2)[nH]1
Candida albicans [1]
  Activity: Not active; Decrease In Activity Observed
Candida albicans [2]
  Activity: Not active; Decrease In Activity Observed
Candida albicans [3]
  Activity: Not active; Decrease In Activity Observed
[Candida] auris [4]
  Activity: Not active; Decrease In Activity Observed
[Candida] auris [5]
  Activity: Not active; Decrease In Activity Observed
[Candida] auris [6]
  Activity: Not active; Decrease In Activity Observed
Cryptococcus neoformans [7]
  Activity: Active
Cryptococcus neoformans [8]
  Activity: Active
Cryptococcus neoformans [9]
  Activity: Active
Cryptococcus gattii
  Activity: Active
Nakaseomyces glabratus [10]
  Activity: Active
Nakaseomyces glabratus [11]
  Activity: Active
Nakaseomyces glabratus [12]
  Activity: Active

## Nc1cc(=O)n(C(=S)Nc2ccc(OC3CCCC3)cc2)[nH]1
Candida albicans [1]
  Activity: Active
Candida albicans [2]
  Activity: Active
Candida albicans [3]
  Activity: Active
[Candida] auris [4]
  Activity: Active
[Candida] auris [5]
  Activity: Active
[Candida] auris [6]
  Activity: Active
Cryptococcus neoformans [7]
  Activity: Active
Cryptococcus neoformans [8]
  Activity: Active
Cryptococcus neoformans [9]
  Activity: Active
Cryptococcus gattii
  Activity: Active
Nakaseomyces glabratus [10]
  Activity: Active
Nakaseomyces glabratus [11]
  Activity: Active
Nakaseomyces glabratus [12]
  Activity: Active

## Nc1cc(=O)n(C(=S)Nc2ccc3c(c2)COC3=O)[nH]1
Candida albicans [1]
  Activity: inactive
Candida albicans [2]
  Activity: inactive
Candida albicans [3]
  Activity: inactive
[Candida] auris [4]
  Activity: inactive
[Candida] auris [5]
  Activity: inactive
[Candida] auris [6]
  Activity: inactive
Cryptococcus neoformans [7]
  Activity: Not active; Decrease In Activity Observed
Cryptococcus neoformans [8]
  Activity: Not active; Decrease In Activity Observed
Cryptococcus neoformans [9]
  Activity: Not active; Decrease In Activity Observed
Cryptococcus gattii
  Activity: Not active; Decrease In Activity Observed
Nakaseomyces glabratus [10]
  Activity: Not active; Decrease In Activity Observed
Nakaseomyces glabratus [11]
  Activity: Not active; Decrease In Activity Observed
Nakaseomyces glabratus [12]
  Activity: Not active; Decrease In Activity Observed

## CS(=O)(=O)c1ccc(NC(=S)n2[nH]c(N)cc2=O)cc1
Candida albicans [1]
  Activity: Not active; Compound Demonstrated Reduced Activity Compared To Lead Compound 1
Candida albicans [2]
  Activity: Not active; Compound Demonstrated Reduced Activity Compared To Lead Compound 1
Candida albicans [3]
  Activity: Not active; Compound Demonstrated Reduced Activity Compared To Lead Compound 1
[Candida] auris [4]
  Activity: Not active; Compound Demonstrated Reduced Activity Compared To Lead Compound 1
[Candida] auris [5]
  Activity: Not active; Compound Demonstrated Reduced Activity Compared To Lead Compound 1
[Candida] auris [6]
  Activity: Not active; Compound Demonstrated Reduced Activity Compared To Lead Compound 1
Cryptococcus neoformans [7]
  Activity: Not active; Compound Demonstrated Reduced Activity Compared To Lead Compound 1
Cryptococcus neoformans [8]
  Activity: Not active; Compound Demonstrated Reduced Activity Compared To Lead Compound 1
Cryptococcus neoformans [9]
  Activity: Not active; Compound Demonstrated Reduced Activity Compared To Lead Compound 1
Cryptococcus gattii
  Activity: Not active; Compound Demonstrated Reduced Activity Compared To Lead Compound 1
Nakaseomyces glabratus [10]
  Activity: Active
Nakaseomyces glabratus [11]
  Activity: Active
Nakaseomyces glabratus [12]
  Activity: Active

## OC(Cn1cncn1)(Cn1cncn1)c1ccc(F)cc1F [FLUCONAZOLE]
Nakaseomyces glabratus [13]
  Activity: inactive
Cryptococcus neoformans [14]
  inhibition at 32 µg/mL: 17%
Nakaseomyces glabratus [15]
  inhibition: Moderate_effect
Cryptococcus neoformans [16]
  inhibition: inactive
Cryptococcus neoformans [17]
  inhibition: inactive
Cryptococcus neoformans [18]
  inhibition: inactive
Cryptococcus neoformans [19]
  inhibition: inactive
Cryptococcus neoformans [20]
  Activity: inactive
Cryptococcus neoformans [21]
  Activity: inactive
Cryptococcus neoformans [22]
  Activity: inactive
Cryptococcus neoformans [23]
  Activity: inactive
Cryptococcus neoformans [24]
  Activity: inactive
Cryptococcus neoformans [25]
  Activity: inactive
Cryptococcus neoformans [26]
  MIC: 2 µg/mL
Cryptococcus neoformans [27]
  MIC: 2 µg/mL
Cryptococcus neoformans [28]
  MIC: 2 µg/mL
Cryptococcus neoformans [29]
  Activity: inactive
Cryptococcus neoformans [30]
  Activity: inactive

## Nc1cc(=O)n(C(=S)Nc2ccc(C(F)(F)F)cc2)[nH]1
Candida albicans [1]
  Activity: Not active; Compound Demonstrated Reduced Activity Compared To Lead Compound 1
Candida albicans [2]
  Activity: Not active; Compound Demonstrated Reduced Activity Compared To Lead Compound 1
Candida albicans [3]
  Activity: Not active; Compound Demonstrated Reduced Activity Compared To Lead Compound 1
[Candida] auris [4]
  Activity: Not active; Compound Demonstrated Reduced Activity Compared To Lead Compound 1
[Candida] auris [5]
  Activity: Not active; Compound Demonstrated Reduced Activity Compared To Lead Compound 1
[Candida] auris [6]
  Activity: Not active; Compound Demonstrated Reduced Activity Compared To Lead Compound 1
Cryptococcus neoformans [7]
  Activity: Not active; Compound Demonstrated Reduced Activity Compared To Lead Compound 1
Cryptococcus neoformans [8]
  Activity: Not active; Compound Demonstrated Reduced Activity Compared To Lead Compound 1
Cryptococcus neoformans [9]
  Activity: Not active; Compound Demonstrated Reduced Activity Compared To Lead Compound 1
Cryptococcus gattii
  Activity: Not active; Compound Demonstrated Reduced Activity Compared To Lead Compound 1
Nakaseomyces glabratus [10]
  Activity: Active
Nakaseomyces glabratus [11]
  Activity: Active
Nakaseomyces glabratus [12]
  Activity: Active
